Test results: patent US12053507B2, “Combination therapies for inhibiting sprout angiogenesis in the treatment of cancers” ([…] OF PHARMACY, LLC, priority 2010, dated 2024)
“Also recorded” adds a separate entry of the source.

Columns and labels:
VEGF = conditions: colorectal cancer; in combination with standard Saltz regime of irinotecan, 5-fluorouracil, and leucovorin; cited from earlier work
[1] = test system: human dermal microvascular endothelial cells (HDMEC); test: microcarrier in vitro 3D sprout angiogenesis assay of HDMEC in fibrin gel; type: cell-based
Description: Human dermal microvascular endothelial cells (HDMEC) were isolated from human neonatal foreskins. Briefly, after initial harvest from minced trypsinized human foreskins, microvascular endothelial cells were further purified on a PERCOLL® density gradient. […] HDMEC were cultured on collagen type 1 coated tissue culture flasks in EGM (endothelial cell growth medium) consisting of EBM supplemented with 10 ng/ml epidermal growth factor, 0.4% bovine brain extract, 17.5 microg/ml dibutyryl cyclic AMP, and 1 microg/ml hydrocortisone in the presence of 30% normal human serum. […] All experiments were done with HDMEC below passage 10. Bovine aortic endothelial cells (BAEC) were obtained from BioWhittaker, Inc. (Walkersville, MD) and cultured according to manufacturer's instruction. BAEC between passage 4 and 8 were used for experiments.
Gelatin-coated CYTODEX®-3 microcarrier beads were prepared as described by the manufacturer. Approximately 80,000 sterile microcarrier beads were washed, resuspended in EGM, and added to approximately 4.5 million endothelial cells (HDMEC or BAEC). The beads and cells were mixed by gentle swirling, incubated at 37° C. for 6 hr, and then rotated for 24-36 hr on an orbital mixer in a 37° C. oven to generate endothelial cell-loaded microcarrier beads (EC-beads).
FIGS. 1A-1C illustrate a study of human microvascular endothelial cell angiogenesis, according to some embodiments. A microcarrier, in vitro angiogenesis assay, previously designed to investigate bovine pulmonary artery endothelial cell angiogenic behavior in bovine fibrin gels, was modified for the study of human microvascular endothelial cell angiogenesis. The HDMEC were isolated from human neonatal foreskins and used, as described above, and images were captured at various magnifications, where the effect of angiogenic factors on sprout angiogenesis was quantified visually by counting the number and percent of EC-beads with capillary sprouts.
An isotonic 1.5 mg/ml collagen solution was prepared by mixing sterile native bovine type I &III collagen (VITROGEN®, Collagen Biomaterials, Palo Alto, CA) in 5XM199 medium and distilled water. The pH was adjusted to 7.4 using 1N NaOH.
For experiments using RGD peptides, EC-beads were firstly incubated with vary concentrations of peptides for one hour and then were added to the ECM solutions. About 500 EC-beads were then added to the ECM protein solutions, followed by the addition of 0.5 U/ml human thrombin. A 0.3 ml aliquot of each suspension was immediately added to appropriate wells of a 24-well tissue culture plate. After gelation, 1 ml of fresh assay medium (EBM supplemented with 20% normal human serum for HDMEC or EBM supplemented with 10% fetal bovine serum for BAEC) was added to each well.
FIGS. 1B and 1C show how the angiogenic response was monitored visually and recorded by video image capture. Specifically, capillary sprout formation was observed and recorded with a NIKON® Diaphot-TMD inverted microscope (Nikon Inc., Melville, NY), equipped with an incubator housing with a NIKON® NP-2 thermostat and Sheldon #2004 carbon dioxide flow mixer. […] The effect of angiogenic factors on sprout angiogenesis was quantified visually by determining the number and percent of EC-beads with capillary sprouts. 100-200 beads (five random low power fields) in each of triplicate wells were counted for each experimental condition. […]

αvβ3 integrin = αvβ3 integrin (Homo sapiens, UniProt P05106+P06756); conditions: cited from earlier work
[2] = single agent, HDMEC in 3D fibrin matrix, stimulated with VEGF and bFGF

Sequence of VEGF (P15692 207-311 limits assumed): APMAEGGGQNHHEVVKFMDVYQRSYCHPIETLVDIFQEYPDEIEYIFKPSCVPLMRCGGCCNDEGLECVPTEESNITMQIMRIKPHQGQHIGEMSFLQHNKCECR
Sequence of αvβ3 integrin (P06756 31-889 limits assumed): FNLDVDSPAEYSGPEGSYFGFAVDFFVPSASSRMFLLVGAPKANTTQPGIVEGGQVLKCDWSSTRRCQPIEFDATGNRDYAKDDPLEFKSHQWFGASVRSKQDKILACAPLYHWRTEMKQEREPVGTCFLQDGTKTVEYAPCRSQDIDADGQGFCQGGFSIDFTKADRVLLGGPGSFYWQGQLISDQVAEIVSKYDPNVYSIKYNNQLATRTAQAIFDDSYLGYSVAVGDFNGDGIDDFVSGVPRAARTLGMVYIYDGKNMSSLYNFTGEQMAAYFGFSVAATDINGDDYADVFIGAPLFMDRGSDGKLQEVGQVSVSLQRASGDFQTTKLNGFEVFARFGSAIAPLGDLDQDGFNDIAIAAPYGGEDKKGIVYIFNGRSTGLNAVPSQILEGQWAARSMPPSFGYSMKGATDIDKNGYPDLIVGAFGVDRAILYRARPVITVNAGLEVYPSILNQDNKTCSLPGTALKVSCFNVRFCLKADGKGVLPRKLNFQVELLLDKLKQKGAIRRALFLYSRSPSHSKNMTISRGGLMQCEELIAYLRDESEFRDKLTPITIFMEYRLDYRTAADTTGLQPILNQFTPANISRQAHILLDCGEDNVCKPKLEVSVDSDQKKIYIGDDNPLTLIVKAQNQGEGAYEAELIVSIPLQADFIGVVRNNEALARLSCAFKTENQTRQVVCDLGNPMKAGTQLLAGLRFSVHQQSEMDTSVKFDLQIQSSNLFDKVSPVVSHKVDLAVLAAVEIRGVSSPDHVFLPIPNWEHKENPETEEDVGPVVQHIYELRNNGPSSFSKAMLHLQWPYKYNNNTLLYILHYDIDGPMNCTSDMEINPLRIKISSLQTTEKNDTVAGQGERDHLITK
Sequence of αvβ3 integrin (P06756 891-1048 partner limits assumed): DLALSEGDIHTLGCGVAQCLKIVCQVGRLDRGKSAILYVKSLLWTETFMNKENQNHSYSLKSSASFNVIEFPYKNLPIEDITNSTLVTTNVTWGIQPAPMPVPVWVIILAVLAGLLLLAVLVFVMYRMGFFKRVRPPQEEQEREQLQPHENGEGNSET
Sequence of αvβ3 integrin (P05106 27-788): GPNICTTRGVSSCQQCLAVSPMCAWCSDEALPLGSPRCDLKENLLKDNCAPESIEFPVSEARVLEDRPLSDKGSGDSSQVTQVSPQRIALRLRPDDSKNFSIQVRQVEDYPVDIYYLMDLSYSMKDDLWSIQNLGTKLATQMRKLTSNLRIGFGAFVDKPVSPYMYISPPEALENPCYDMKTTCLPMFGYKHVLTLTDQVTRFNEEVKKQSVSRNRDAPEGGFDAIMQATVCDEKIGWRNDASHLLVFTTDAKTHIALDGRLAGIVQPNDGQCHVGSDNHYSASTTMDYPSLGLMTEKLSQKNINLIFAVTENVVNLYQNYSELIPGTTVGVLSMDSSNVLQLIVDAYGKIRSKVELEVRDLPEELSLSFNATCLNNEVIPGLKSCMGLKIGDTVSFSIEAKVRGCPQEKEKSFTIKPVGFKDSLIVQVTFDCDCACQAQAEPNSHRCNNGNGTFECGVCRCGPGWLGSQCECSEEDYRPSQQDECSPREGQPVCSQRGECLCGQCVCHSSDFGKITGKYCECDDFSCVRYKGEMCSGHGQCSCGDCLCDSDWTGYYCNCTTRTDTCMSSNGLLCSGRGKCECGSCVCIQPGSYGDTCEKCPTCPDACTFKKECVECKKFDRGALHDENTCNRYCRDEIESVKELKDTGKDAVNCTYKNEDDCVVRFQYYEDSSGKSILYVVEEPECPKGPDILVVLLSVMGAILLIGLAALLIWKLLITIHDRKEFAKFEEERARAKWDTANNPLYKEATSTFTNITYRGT

Substance | increase of survival time (VEGF) | inhibition of sprout angiogenesis [1, 2] | inhibition of sprout angiogenesis ([1]; echistatin alone at 0.1 μg/ml, HDMEC in fibrin) | inhibition of sprout angiogenesis ([1]; echistatin alone, 1 μg/ml to 10 μg/ml, HDMEC in fibrin) | inhibition of sprout angiogenesis ([1]; single agent, HDMEC in 3D fibrin matrix, stimulated with VEGF and bFGF, listed as Echistatin) | αvβ3 integrin antagonism (αvβ3 integrin)
AVASTATIN® (bevacizumab): human monoclonal antibody to VEGF | more than 30% |  |  |  |  | 
cyclo (Arg-Gly-Asp-d-Phe-Cys) [cRGDfC, reference compound] |  | dose dependently inhibited sprout angiogenesis |  |  |  | 
echistatin (QCESGPCCRNCKFLKEGTICKRARGDDMDDYCNGKTCDCPRNPHKGPAT; listed as Echis carinatus) |  | inhibition of sprout angiogenesis; also recorded: dose dependently inhibited sprout angiogenesis | little inhibitory effect | dose dependently | dose dependently inhibits sprout angiogenesis | potent irreversible αvβ3 integrin antagonist
